Reference: ChEMBL document CHEMBL1777740, “Toward self-adjuvanting subunit vaccines: model peptide and protein antigens incorporating covalently bound toll-like receptor-7 agonistic imidazoquinolines” (Bioorg Med Chem Lett, 2011)
Activity calls are given as the source filed them. No cut-off for these calls is given here.

Tests used:
Format in all cases: functional, cell-based
[1] = tested on: PBMC; assay: Immunostimulatory activity in human PBMC assessed as Th1-biased immunostimulatory activity measured as IFNalpha release by ELISA
[2] = tested on: PBMC; assay: Immunostimulatory activity in human PBMC assessed as Th1-biased immunostimulatory activity measured as IFN-gamma release by ELISA
[3] = tested on: PBMC; assay: Immunostimulatory activity in human PBMC assessed as Th1-biased immunostimulatory activity measured as IL12 release by ELISA
[4] = tested on: PBMC; assay: Immunostimulatory activity in human PBMC assessed as Th1-biased immunostimulatory activity measured as IL18 release by ELISA
[5] = target: T1, Toll-like receptor 7 (Homo sapiens) (UniProt Q9NYK1); assay: Agonist activity at human TLR7 transfected in HEK reporter cells assessed as NF-kappaB induction by specific secreted alkaline phosphatase gene assay; conditions: HEK293
T1 sequence (whole entry): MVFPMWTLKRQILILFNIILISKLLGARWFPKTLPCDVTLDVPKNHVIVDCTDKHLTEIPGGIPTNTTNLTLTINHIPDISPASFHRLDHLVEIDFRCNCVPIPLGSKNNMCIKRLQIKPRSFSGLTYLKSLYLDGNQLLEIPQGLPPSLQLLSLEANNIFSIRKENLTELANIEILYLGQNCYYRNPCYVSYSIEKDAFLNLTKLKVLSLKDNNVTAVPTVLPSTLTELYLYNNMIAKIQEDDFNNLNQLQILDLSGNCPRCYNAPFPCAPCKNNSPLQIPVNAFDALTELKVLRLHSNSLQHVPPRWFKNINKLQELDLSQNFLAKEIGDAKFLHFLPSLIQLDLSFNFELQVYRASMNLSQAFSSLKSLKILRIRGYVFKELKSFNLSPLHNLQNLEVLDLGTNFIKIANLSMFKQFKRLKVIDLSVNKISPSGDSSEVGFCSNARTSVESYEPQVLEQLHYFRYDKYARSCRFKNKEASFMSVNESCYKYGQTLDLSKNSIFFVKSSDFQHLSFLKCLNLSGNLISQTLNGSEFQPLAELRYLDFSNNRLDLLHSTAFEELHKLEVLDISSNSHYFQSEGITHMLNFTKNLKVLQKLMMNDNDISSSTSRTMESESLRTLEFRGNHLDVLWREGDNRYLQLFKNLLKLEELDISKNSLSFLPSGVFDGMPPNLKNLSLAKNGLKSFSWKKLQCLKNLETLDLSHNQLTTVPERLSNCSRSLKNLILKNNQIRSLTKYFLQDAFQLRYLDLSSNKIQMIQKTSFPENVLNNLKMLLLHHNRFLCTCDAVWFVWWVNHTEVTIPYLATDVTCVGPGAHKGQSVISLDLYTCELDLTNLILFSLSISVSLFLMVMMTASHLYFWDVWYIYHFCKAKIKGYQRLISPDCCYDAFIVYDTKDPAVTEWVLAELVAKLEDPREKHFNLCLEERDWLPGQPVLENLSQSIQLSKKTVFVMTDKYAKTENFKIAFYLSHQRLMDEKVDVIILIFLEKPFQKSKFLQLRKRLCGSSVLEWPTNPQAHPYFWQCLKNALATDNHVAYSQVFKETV

Row | Activity [5] | Compound | Activity [1] | Activity [2] | Activity [3] | Activity [4]
1 |  | CCCCc1nc2c(N)nc3ccccc3c2n1Cc1ccc(CN)cc1 | Active | Active | Active | Active
2 | inactive | CCCCc1nc2c(N)nc3ccccc3c2n1Cc1ccc(CNC(=O)CCN2C(=O)CC(SC[C@@H](NC(=O)CC[C@@H](N)C(=O)O)C(=O)NCC(=O)O)C2=O)cc1 (stereo not given in full) |  |  |  | 
